What is called EC50 is the concentration at which the effect is half-maximal.

This assay has as its system HBV rcDNA in HepDE19 cells. In words: HepDE19 assay with bDNA quantitation of HBV rcDNA. The assay is classed as cell-based, hepatitis B virus. The following applies: Hepatitis B virus, HepDE19, HepDE19 assay, inhibition of rcDNA formation, bDNA quantitation; read-out: DE-19bDNA EC50.
As to `CN(C(=O)c1c[nH]c(=O)c(Br)c1)[C@@H]1COCc2[nH]c(=O)c3cc(F)c(F)cc3c21` [Compound 205, (S)-5-Bromo-N-(8,9-difluoro-6-oxo-1,4,5,6-tetrahydro-2H-pyrano[3,4-c]isoquinolin-1-yl)-N-methyl-6-oxo-1,6-dihydropyridine-3-carboxamide], the EC50 worked out at 15800 nM. In the case of `CN(C(=O)c1cc2nc(Cl)ccc2[nH]1)[C@@H]1COCc2[nH]c(=O)c3cc(F)c(F)cc3c21` [Compound 206, (S)-5-Chloro-N-(8,9-difluoro-6-oxo-1,4,5,6-tetrahydro-2H-pyrano[3,4-c]isoquinolin-1-yl)-N-methyl-1H-pyrrolo[3,2-b]pyridine-2-carboxamide] it was 630 nM; in that of `CN(C(=O)C1(O)CCCCC1)[C@@H]1COCc2[nH]c(=O)c3cc(F)c(F)cc3c21` [Compound 211, (S)-N-(8,9-Difluoro-6-oxo-1,4,5,6-tetrahydro-2H-pyrano[3,4-c]isoquinolin-1-yl)-1-hydroxy-N-methylcyclohexane-1-carboxamide], 7660 nM. On to `CN(C(=O)c1cc2cc(F)c(C(F)F)cc2[nH]1)[C@@H]1COCc2[nH]c(=O)c3cc(F)c(F)cc3c21` [Compound 212, (S)-N-(8,9-Difluoro-6-oxo-1,4,5,6-tetrahydro-2H-pyrano[3,4-c]isoquinolin-1-yl)-6-(difluoromethyl)-5-fluoro-N-methyl-1H-indole-2-carboxamide], for which the EC50 came to 10 nM. Take `CN(C(=O)c1cc2cc(Br)ncc2[nH]1)[C@@H]1COCc2[nH]c(=O)c3cc(F)c(F)cc3c21` [Compound 213, (S)-5-Bromo-N-(8,9-difluoro-6-oxo-1,4,5,6-tetrahydro-2H-pyrano[3,4-c]isoquinolin-1-yl)-N-methyl-1H-pyrrolo[2,3-c]pyridine-2-carboxamide]: the concentration for a half-maximal effect (EC50) is 80 nM. For `CN(C(=O)c1cc2cc(C(F)(F)F)cnc2[nH]1)[C@@H]1COCc2[nH]c(=O)c3cc(F)c(F)cc3c21` [Compound 214, (S)-N-(8,9-difluoro-6-oxo-1,4,5,6-tetrahydro-2H-pyrano[3,4-c]isoquinolin-1-yl)-N-methyl-5-(trifluoromethyl)-1H-pyrrolo[2,3-b]pyridine-2-carboxamide], the EC50 came to 1000 nM.

Consider `CN(C(=O)c1c[nH]c(=O)c(Cl)c1)[C@@H]1COCc2[nH]c(=O)c3cc(F)c(F)cc3c21` [Compound 215, (S)-5-Chloro-N-(8,9-difluoro-6-oxo-1,4,5,6-tetrahydro-2H-pyrano[3,4-c]isoquinolin-1-yl)-N-methyl-6-oxo-1,6-dihydropyridine-3-carboxamide], for which the EC50 worked out at 20100 nM.

`CN(C(=O)c1ccc(Br)c(=O)[nH]1)[C@@H]1COCc2[nH]c(=O)c3cc(F)c(F)cc3c21` [Compound 216, (S)-5-Bromo-N-(8,9-difluoro-6-oxo-1,4,5,6-tetrahydro-2H-pyrano[3,4-c]isoquinolin-1-yl)-N-methyl-6-oxo-1,6-dihydropyridine-2-carboxamide]: the concentration giving a half-maximal response (EC50) is 7300 nM. On to `CN(C(=O)c1cc2nc(C(F)(F)F)ccc2[nH]1)[C@@H]1COCc2[nH]c(=O)c3cc(F)c(F)cc3c21` [Compound 219, (S)-N-(8,9-difluoro-6-oxo-1,4,5,6-tetrahydro-2H-pyrano[3,4-c]isoquinolin-1-yl)-N-methyl-5-(trifluoromethyl)-1H-pyrrolo[3,2-b]pyridine-2-carboxamide], for which the EC50 was 1440 nM. Turning to `CN(C(=O)c1cc2ccc(F)cn2c1)[C@@H]1COCc2[nH]c(=O)c3cc(F)c(F)cc3c21` [Compound 224, (S)-N-(8,9-Difluoro-6-oxo-1,4,5,6-tetrahydro-2H-pyrano[3,4-c]isoquinolin-1-yl)-6-fluoro-N-methylindolizine-2-carboxamide], the 50% effective concentration (EC50) stood at 10 nM. `CN(C(=O)c1cnc(C(F)(F)F)[nH]1)[C@@H]1COCc2[nH]c(=O)c3cc(F)c(F)cc3c21` [Compound 225, (S)-N-(8,9-Difluoro-6-oxo-1,4,5,6-tetrahydro-2H-pyrano[3,4-c]isoquinolin-1-yl)-N-methyl-2-(trifluoromethyl)-1H-imidazole-5-carboxamide]: the EC50 is 13000 nM. In the case of `CN(C(=O)c1c[nH]c(=O)c(F)c1)[C@@H]1COCc2[nH]c(=O)c3cc(F)c(F)cc3c21` [Compound 226, (S)-N-(8,9-Difluoro-6-oxo-1,4,5,6-tetrahydro-2H-pyrano[3,4-c]isoquinolin-1-yl)-5-fluoro-N-methyl-6-oxo-1,6-dihydropyridine-3-carboxamide] it was 12500 nM. As to `CN(C(=O)c1ccc2cccn2c1)[C@@H]1COCc2[nH]c(=O)c3cc(F)c(F)cc3c21` [Compound 227, (S)-N-(8,9-Difluoro-6-oxo-1,4,5,6-tetrahydro-2H-pyrano[3,4-c]isoquinolin-1-yl)-N-methylindolizine-6-carboxamide], the concentration for a half-maximal effect (EC50) came out at 20 nM.

With `CN(C(=O)c1ccn2cccc2c1)[C@@H]1COCc2[nH]c(=O)c3cc(F)c(F)cc3c21` [Compound 228, (S)-N-(8,9-Difluoro-6-oxo-1,4,5,6-tetrahydro-2H-pyrano[3,4-c]isoquinolin-1-yl)-N-methylindolizine-7-carboxamide], the EC50 stood at 60 nM. In the case of `CN(C(=O)C(O)(c1ccccc1)c1ccccc1)[C@@H]1COCc2[nH]c(=O)c3cc(F)c(F)cc3c21` [Compound 229, (S)-N-(8,9-Difluoro-6-oxo-1,4,5,6-tetrahydro-2H-pyrano[3,4-c]isoquinolin-1-yl)-2-hydroxy-N-methyl-2,2-diphenylacetamide], the EC50 amounted to 8400 nM.

In the case of `CN(C(=O)c1cc2c(C(F)F)cc(F)cc2[nH]1)[C@@H]1COCc2[nH]c(=O)c3cc(F)c(F)cc3c21` [Compound 230, (S)-N-(8,9-Difluoro-6-oxo-1,4,5,6-tetrahydro-2H-pyrano[3,4-c]isoquinolin-1-yl)-4-(difluoromethyl)-6-fluoro-N-methyl-1H-indole-2-carboxamide], the EC50 worked out at 10 nM.

Consider `CN(C(=O)c1cc2cc(F)ccn2c1)[C@@H]1COCc2[nH]c(=O)c3cc(F)c(F)cc3c21` [Compound 231, (S)-N-(8,9-Difluoro-6-oxo-1,4,5,6-tetrahydro-2H-pyrano[3,4-c]isoquinolin-1-yl)-7-fluoro-N-methylindolizine-2-carboxamide], for which the EC50 came to 10 nM. For the compound `CN(C(=O)c1cc2nc(F)ccc2[nH]1)[C@@H]1COCc2[nH]c(=O)c3cc(F)c(F)cc3c21` [Compound 232, (S)-N-(8,9-Difluoro-6-oxo-1,4,5,6-tetrahydro-2H-pyrano[3,4-c]isoquinolin-1-yl)-5-fluoro-N-methyl-1H-pyrrolo[3,2-b]pyridine-2-carboxamide], the EC50 was 70 nM. Regarding `CN(C(=O)C1Cc2cc(F)c(F)cc2C1)[C@@H]1COCc2[nH]c(=O)c3cc(F)c(F)cc3c21` [Compound 233, (S)-N-(8,9-Difluoro-6-oxo-1,4,5,6-tetrahydro-2H-pyrano[3,4-c]isoquinolin-1-yl)-5,6-difluoro-N-methyl-2,3-dihydro-1H-indene-2-carboxamide], the EC50 stood at 40 nM. For the compound `CN(C(=O)c1cnn(-c2ccc(F)cc2)c1)[C@@H]1COCc2[nH]c(=O)c3cc(F)c(F)cc3c21` [Compound 234, (S)-N-(8,9-Difluoro-6-oxo-1,4,5,6-tetrahydro-2H-pyrano[3,4-c]isoquinolin-1-yl)-1-(4-fluorophenyl)-N-methyl-1H-pyrazole-4-carboxamide], the concentration giving a half-maximal response (EC50) stood at 10500 nM.

For the origin of these results see patent US20240228504A1, “SUBSTITUTED TRICYCLIC AMIDES, ANALOGUES THEREOF, AND METHODS USING SAME” (Arbutus Biopharma Corporation, priority 2020, published 2024).
